# Assay results reported in US20170247409A1, “ABIETANE-TYPE DITERPENOIDS” (UNIVERSITY OF HELSINKI, priority 2014, published 2017).
# Values joined by “and” are separate entries in the source; they are usually repeats but may differ in a detail not shown here. Equal values may be shown once. Read-outs that look alike come from different tables or passages of the source.
# Columns and labels:
# [1] = system: S. aureus ATCC 25923 biofilms; assay: Anti-biofilm viability assay with redox dye, pre- and post-exposure, S. aureus ATCC 25923 biofilms; type: cell-based, Staphylococcus aureus; settings: for inhibition at 400 µM: ATCC25923; for % inhibition, Post-biofilm formation: at 400 μM, existing biofilms
# single-cell bacteria = assay: Antibacterial activity (MIC) against single-cell (planktonic) bacteria; type: cell-based; settings: Staphylococcus aureus, in the absence of biofilms, strain not stated
# From the text: We selected six of the active compounds in the post-exposure assays namely, compounds 20, 21, 22, 25, 31 and 32 for the follow-up studies. […] In this mode of the assay, the interaction of the compounds occurs initially with single-cell bacteria (that is, a planktonic solution) before biofilms are formed. Therefore, we tested additionally if the compounds could exert antibacterial activity against single-cell bacteria, in the absence of biofilms. Based solely on conventional MIC and MBC values, antibacterial activities against single-cell bacteria were also high for the derivatives. […] The antibacterial activity order 22>21>25>31>20>32 correlated very well with the measured activity in preventing biofilm formation.
# S. aureus Newman = assay: Anti-biofilm potency against S. aureus Newman biofilms; type: cell-based, Staphylococcus aureus
# From the text: In fact, only 2-3 fold-higher concentrations of the compounds were needed to kill existing biofilms, in comparison to inhibiting bacterial colonization. […] Anti-biofilm potencies were all in the micromolar range and they were particularly significant for compound 22. […] The activity was also confirmed against S. aureus Newman strain. Potency values calculated for the S. aureus Newman (Table 3) were very similar to the values registered for S. aureus ATCC 25923.
# [2] = system: S. aureus ATCC 25923 biofilms; assay: Viable plate counts and Log Reduction of S. aureus ATCC 25923 biofilms; type: cell-based, Staphylococcus aureus; settings: 400 μM, viable plate counts
# Protocol: The viability of S. aureus (ATCC 25923) biofilms left upon exposure to compounds 20, 21, 22 and 25 was determined using viable plate counts and calculating the Log Reduction (Log R) value. This procedure involves scrapping the biofilms off the substrate, disaggregating them by sonication and plating the resulting suspension in agar. The method is highly laborious but it is the gold standard for the quantification of anti-biofilm efficacy (Pitts et al. 2003). […] Of note, a log R value of 2 represents a reduction of 99% of the viable cells in the biofilms, and typically, a log R of 3 is considered a relevant indicator of the compound efficacy as an anti-biofilm agent.
# S. aureus biofilm = settings: Fallarero et al, 2013; cited from earlier work
# E. coli XL1 blue = assay: Anti-biofilm activity against E. coli XL1 blue biofilms; type: cell-based, Escherichia coli; settings: tested at IC50 conc. measured against S. aureus ATCC 25923
# Protocol: (§1) Four of the compounds were also tested against gram-negative E. coli biofilms as well as other Staphylococcal strains, at the corresponding IC50 values measured against S. aureus ATCC 25923 (Table 4). […] Nonetheless, all the compounds presented below were found active against S. epidermidis (ATCC 12228 and ATCC 35984) strains (Table 3).
# [3] = system: S. epidermidis ATCC 12228; assay: Anti-biofilm activity against S. epidermidis ATCC 12228; type: cell-based, Staphylococcus epidermidis; settings: tested at IC50 conc. measured against S. aureus ATCC 25923
# Protocol: as §1
# [4] = system: S. epidermidis ATCC 35984; assay: Anti-biofilm activity against S. epidermidis ATCC 35984; type: cell-based, Staphylococcus epidermidis; settings: tested at IC50 conc. measured against S. aureus ATCC 25923
# Protocol: as §1
# HL cells = assay: Tolerability of mammalian cells, resazurin viability assay; type: cell-based, human; settings: concentrations of up to 100 μM; 24 hours exposure
# Protocol: Viability values were measured in acute conditions (24 hours exposure) using the resazurin assay as in Karlsson et al, 2012 (Eur J Pharm Sci. 2012 Aug 30;47(1):190-205). […] The least tolerated molecule was 25, as only 23% (±5.9) of cells remained viable upon exposure to 100 μM. However, concentrations up to 30 μM caused no cytotoxicity (90.2% of viable cells, ±0.5).
# [5] = Staphylococcus aureus, post-exposure, S. aureus ATCC 25923, read-out: % Inhibition 400 μM POST
# [6] = Staphylococcus aureus, pre-exposure, S. aureus ATCC 25923, read-out: % Inhibition 400 μM PRE
# [7] = Staphylococcus aureus, ATCC25923, 50% inhibition of biofilm viability, S. aureus ATCC 25923, read-out: Potency, IC50 Prior-to-biofilm formation
# [8] = Staphylococcus aureus, ATCC25923, 50% inhibition of biofilm viability, S. aureus ATCC 25923, value in parentheses, read-out: Potency, IC50 Prior-to-biofilm formation
# [9] = Staphylococcus aureus, ATCC25923, 24 h, measured 24 hours after adding to existing biofilms, S. aureus ATCC 25923, read-out: Potency, IC50 Post-biofilm formation
# [10] = Staphylococcus aureus, ATCC25923, 24 h, measured 24 hours after adding to existing biofilms, S. aureus ATCC 25923, value in parentheses, read-out: Potency, IC50 Post-biofilm formation
# [11] = Staphylococcus aureus, S. aureus Newman, read-out: Potency, IC50 Post-biofilm formation
# [12] = Staphylococcus aureus, S. aureus Newman, read-out: Potency, IC50 Prior-to-biofilm formation
# [13] = Staphylococcus aureus, S. aureus Newman, value in parentheses, read-out: Potency, IC50 Post-biofilm formation
# [14] = Staphylococcus aureus, S. aureus Newman, value in parentheses, read-out: Potency, IC50 Prior-to-biofilm formation
Molecule,"inhibition at 400 µM [1, 5] [%]","inhibition at 400 µM [1, 6] [%]","IC50 [1, 7] [µM]","IC50 [1, 8] [µg/mL]","IC50 [1, 9] [µM]","IC50 [1, 10] [µg/mL]",MIC (single-cell bacteria) [µg/mL],IC50 (S. aureus Newman; [11]) [µM],IC50 (S. aureus Newman; [12]) [µM],IC50 (S. aureus Newman; [13]) [µg/mL],IC50 (S. aureus Newman; [14]) [µg/mL],also measured
"CC[C@H](NC(=O)[C@]1(C)CCC[C@]2(C)c3ccc(C(C)C)cc3CC[C@@H]12)C(=O)O [Compound 19, N-(abiet-8,11,13-trien-18-oyl) Ethyl-L-glycine]",98.9,99.8,–,–,–,–,–,–,–,–,–,–
"CC(C)c1ccc2c(c1)C(=O)C[C@H]1[C@](C)(C(=O)N[C@@H](CC3CCCCC3)C(=O)O)CCC[C@]21C [Compound 32, N-(7-Oxoabiet-8,11,13-trien-18-oyl) Cyclohexyl-L-alanine]",102,102,60.6,28.3,145,67.9,46.8,93.1,63.5,43.5,29.7,–
"CC1(C)S[C@@H]2[C@H](NC(=O)Cc3ccccc3)C(=O)N2[C@H]1C(=O)O [Penicillin G, reference compound]",–,–,–,–,–,–,–,–,–,–,–,"IC50 ([1]; 50% inhibition of biofilm viability, S. aureus ATCC 25923, read-out: Potency, IC50 Prior-to-biofilm formation): 0.13 µM; Potency, IC50 Prior-to-biofilm formation ([1]; 50% inhibition of biofilm viability, S. aureus ATCC 25923, value in parentheses): 0.048 µg/mL; % inhibition, Post-biofilm formation ([1]; S. aureus ATCC 25923): 57% inhibition at 400 μM; IC50 (S. aureus Newman; S. aureus Newman, read-out: Potency, IC50 Prior-to-biofilm formation): 0.27 µM; Potency, IC50 Prior-to-biofilm formation (S. aureus Newman; S. aureus Newman, value in parentheses): 0.090 µg/mL; % inhibition, Post-biofilm formation (S. aureus Newman; at 400 μM, S. aureus Newman): 73% inhibition at 400 μM; Log Reduction (average ±SD) [2]: 1.0 (±0.1)"
CC(C)c1ccc2c(c1)CC[C@H]1[C@](C)(C(=O)O)CCC[C@]21C [dehydroabietic acid],–,–,–,–,–,–,–,–,–,–,–,prevention of S. aureus biofilm formation (S. aureus biofilm): low micromolar range
"CC(C)C[C@H](NC(=O)[C@]1(C)CCC[C@]2(C)c3ccc(C(C)C)cc3CC[C@@H]12)C(=O)O [Compound 20, N-(Abiet-8,11,13-trien-18-oyl) L-leucine]",99.8,100,62.2,25.7,121,50.2,33.1,134,51.8,55.6,21.4,Inhibition percentage (±SD) Post-biofilm formation (E. coli XL1 blue): 39.9 (±4.6) %; Inhibition percentage (±SD) Prior-to-biofilm formation (E. coli XL1 blue): 14.2 (±4.5) %; Inhibition percentage (±SD) Post-biofilm formation [3]: 12.9 (±5.1) %; Inhibition percentage (±SD) Prior-to-biofilm formation [3]: 62.4 (±2.2) %; Inhibition percentage (±SD) Post-biofilm formation [4]: −12 (±6.0) %; Inhibition percentage (±SD) Prior-to-biofilm formation [4]: 53.4 (±4.9) %; Log Reduction (average ±SD) [2]: 3.9 (±0.4); cytotoxicity in HL cells (HL cells): did not cause statistically significant cytotoxicity
"CC(C)c1ccc2c(c1)CC[C@H]1[C@](C)(C(=O)N[C@H](C(=O)O)C(C)C)CCC[C@]21C [Compound 18, N-(Abiet-8,11,13-trien-18-oyl) L-valine]",99.2,100,–,–,–,–,–,–,–,–,–,–
"CSCC[C@@H](NC(=O)[C@]1(C)CCC[C@]2(C)c3ccc(C(C)C)cc3CC[C@@H]12)C(=O)O [Compound 23, N-(Abiet-8,11,13-trien-18-oyl) D-methionine]",92.6,102,–,–,–,–,–,–,–,–,–,–
"CN[C@H](CC(C)C)C(=O)N[C@H]1C(=O)N[C@@H](CC(N)=O)C(=O)N[C@H]2C(=O)N[C@H]3C(=O)N[C@H](C(=O)N[C@H](C(=O)O)c4cc(O)cc(O)c4-c4cc3ccc4O)[C@H](O)c3ccc(c(Cl)c3)Oc3cc2cc(c3O[C@@H]2O[C@H](CO)[C@@H](O)[C@H](O)[C@H]2O[C@H]2C[C@](C)(N)[C@H](O)[C@H](C)O2)Oc2ccc(cc2Cl)[C@H]1O [Vancomycin, reference compound]",–,–,–,–,–,–,–,–,–,–,–,"IC50 ([1]; Staphylococcus aureus, ATCC25923, read-out: Potency, IC50 Prior-to-biofilm formation): 710 nM and 1.03 µg/mL; % inhibition, Post-biofilm formation ([1]; S. aureus ATCC 25923): 25% inhibition at 400 μM; inhibition at 400 µM (S. aureus Newman; Staphylococcus aureus, NEWMAN, read-out: % inhibition, Post-biofilm formation): 37.9%; IC50 (S. aureus Newman; Staphylococcus aureus, NEWMAN, read-out: Potency, IC50 Prior-to-biofilm formation): 1.3 µM and 1.88 µg/mL"
CC(C)c1ccc2c(c1)CC[C@H]1[C@](C)(CN)CCC[C@]21C [dehydroabietylamine],–,–,–,–,–,–,–,–,–,–,–,prevention of S. aureus biofilm formation (S. aureus biofilm): low micromolar range
nordehydroabietylamine,–,–,–,–,–,–,–,–,–,–,–,prevention of S. aureus biofilm formation (S. aureus biofilm): low micromolar range
"CC(C)c1ccc2c(c1)CC[C@H]1[C@](C)(C(=O)N[C@@H](Cc3ccccc3)C(=O)O)CCC[C@]21C [Compound 21, N-(Abiet-8,11,13-trien-18-oyl) L-phenylalanine]",99.6,100,35.5,15.9,109,48.7,22.4,83.7,35.9,37.5,16.1,Inhibition percentage (±SD) Post-biofilm formation (E. coli XL1 blue): 30.4 (±6.1) %; Inhibition percentage (±SD) Prior-to-biofilm formation (E. coli XL1 blue): 7.4 (±2.7) %; Inhibition percentage (±SD) Post-biofilm formation [3]: 46.9 (±9.9) %; Inhibition percentage (±SD) Prior-to-biofilm formation [3]: 57.3 (±4.6) %; Inhibition percentage (±SD) Post-biofilm formation [4]: 44.4 (±8.4) %; Inhibition percentage (±SD) Prior-to-biofilm formation [4]: 58.1 (±4.1) %; Log Reduction (average ±SD) [2]: 4.3 (±0.2); cytotoxicity in HL cells (HL cells): did not cause statistically significant cytotoxicity
"CC(C)c1ccc2c(c1)CC[C@H]1[C@](C)(C(=O)N[C@H](Cc3ccc(O)cc3)C(=O)O)CCC[C@]21C [Compound 24, N-(Abiet-8,11,13-trien-18-oyl) D-tyrosine]",26.3,102,–,–,–,–,–,–,–,–,–,–
"CC(C)c1ccc2c(c1)CC[C@H]1[C@](C)(C(=O)N[C@H](Cc3ccccc3)C(=O)O)CCC[C@]21C [Compound 31, N-(Abiet-8,11,13-trien-18-oyl) D-phenylalanine]",102,102,37.4,16.7,98.2,44,31.3,110,36.2,49.4,16.2,–
